Reference: ChEMBL document CHEMBL5537159, “Discovery and SAR of JTE-151: A Novel RORγ Inhibitor for Clinical Development” (J Med Chem, 2024)
Active and inactive are the calls of the source. No cut-off for these calls is given here.

Legend:
[1] = Tmax in human at 1600 […], po administered as single dose and measured upto 144 hrs; type: ADME, organism-based; details: in vivo
[2] = Selectivity ratio of antagonist activity at human FXR to inhibition of RORgamma (unknown origin)
[3] = Selectivity ratio of antagonist activity at mouse LXRalpha to inhibition of RORgamma (unknown origin)
[4] = AUCinfinity in C57BL/6J mouse at 3 mg/kg, po administered as single dose and measured after 24 hrs; type: ADME, organism-based; details: in vivo
[5] = Selectivity ratio of agonist activity at mouse LXRalpha to inhibition of RORgamma (unknown origin)
[6] = Tmax in human at 400 […], po administered as single dose and measured upto 144 hrs; type: ADME, organism-based; details: in vivo
[7] = Tmax in human at 600 […], po administered as single dose and measured upto 144 hrs; type: ADME, organism-based; details: in vivo
Adenosine receptor A1 = Adenosine receptor A1 (Homo sapiens, UniProt P30542); experiment: Inhibition of human Adenosine A1 receptor
Chain of Adenosine receptor A1 (P30542 whole entry): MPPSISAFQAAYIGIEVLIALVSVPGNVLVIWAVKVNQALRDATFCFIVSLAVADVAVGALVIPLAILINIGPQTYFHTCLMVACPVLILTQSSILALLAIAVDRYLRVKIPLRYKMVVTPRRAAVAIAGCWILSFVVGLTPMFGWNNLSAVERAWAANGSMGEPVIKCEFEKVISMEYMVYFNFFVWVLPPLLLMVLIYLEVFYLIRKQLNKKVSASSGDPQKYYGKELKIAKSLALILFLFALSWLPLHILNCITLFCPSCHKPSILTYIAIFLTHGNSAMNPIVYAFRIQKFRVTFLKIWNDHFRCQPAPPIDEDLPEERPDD

[8] = Volume of distribution at steady state in C57BL/6J mouse at 1 mg/kg, iv administered as single dose and measured after 24 hrs; type: ADME, organism-based; details: in vivo, read-out: Vdss
[9] = Cmax in human at 30 […], po administered as single dose and measured upto 144 hrs; type: ADME, organism-based; details: in vivo
[10] = molecular target: Voltage-gated inwardly rectifying potassium channel KCNH2 (Homo sapiens, UniProt Q12809); experiment: Inhibition of hERG transfected in HEK293 cells by whole cell patch-clamp method; type: toxicity, cell-based
Chain of Voltage-gated inwardly rectifying potassium channel KCNH2 (Q12809 whole entry): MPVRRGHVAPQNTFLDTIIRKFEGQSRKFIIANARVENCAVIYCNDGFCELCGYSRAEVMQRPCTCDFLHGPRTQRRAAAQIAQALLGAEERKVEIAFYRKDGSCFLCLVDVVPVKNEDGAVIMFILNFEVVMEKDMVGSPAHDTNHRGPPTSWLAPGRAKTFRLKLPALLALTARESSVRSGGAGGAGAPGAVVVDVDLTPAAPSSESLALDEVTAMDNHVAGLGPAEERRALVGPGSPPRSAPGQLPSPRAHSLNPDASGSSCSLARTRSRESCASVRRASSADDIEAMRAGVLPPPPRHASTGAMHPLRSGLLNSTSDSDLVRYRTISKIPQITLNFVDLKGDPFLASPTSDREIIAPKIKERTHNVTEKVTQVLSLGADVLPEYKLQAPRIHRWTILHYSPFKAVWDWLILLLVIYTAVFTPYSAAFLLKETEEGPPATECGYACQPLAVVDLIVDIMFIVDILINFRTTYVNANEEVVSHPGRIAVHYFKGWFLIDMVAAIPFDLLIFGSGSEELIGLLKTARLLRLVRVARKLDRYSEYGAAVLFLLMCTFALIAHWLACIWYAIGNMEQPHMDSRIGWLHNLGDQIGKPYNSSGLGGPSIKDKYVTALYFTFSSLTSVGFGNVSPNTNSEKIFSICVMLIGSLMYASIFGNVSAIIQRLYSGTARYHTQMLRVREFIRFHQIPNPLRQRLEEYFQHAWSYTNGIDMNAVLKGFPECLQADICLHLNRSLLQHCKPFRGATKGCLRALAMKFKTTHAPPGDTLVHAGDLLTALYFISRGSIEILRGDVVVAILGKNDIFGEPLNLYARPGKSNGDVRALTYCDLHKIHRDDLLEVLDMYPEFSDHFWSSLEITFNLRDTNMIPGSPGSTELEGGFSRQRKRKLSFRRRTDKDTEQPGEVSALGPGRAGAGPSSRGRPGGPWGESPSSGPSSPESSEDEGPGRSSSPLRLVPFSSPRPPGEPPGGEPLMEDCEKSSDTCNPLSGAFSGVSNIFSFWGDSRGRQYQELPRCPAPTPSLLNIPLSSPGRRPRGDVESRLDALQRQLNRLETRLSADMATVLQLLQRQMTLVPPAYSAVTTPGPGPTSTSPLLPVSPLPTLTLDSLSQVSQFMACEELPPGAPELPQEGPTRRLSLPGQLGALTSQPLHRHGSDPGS

[11] = MRT in Beagle dog at 3 mg/kg, po administered as single dose and measured after 24 hrs; type: ADME, organism-based, Canis lupus familiaris; details: in vivo
[12] = Toxicity in Beagle dog assessed as development-limiting toxicity at 30 to 100 mg/kg, po administered once daily and measured on day 1,14 and 28; type: organism-based, Canis lupus familiaris; details: in vivo, 672 h, dose 30-100 mg/kg, time 28 day
Cytochrome P450 3A4 = Cytochrome P450 3A4 (Homo sapiens, UniProt P08684); experiment: Inhibition of CYP3A4 in human liver microsomes using midazolam as substrate; type: ADME, Microsome
Chain of Cytochrome P450 3A4 (P08684 whole entry): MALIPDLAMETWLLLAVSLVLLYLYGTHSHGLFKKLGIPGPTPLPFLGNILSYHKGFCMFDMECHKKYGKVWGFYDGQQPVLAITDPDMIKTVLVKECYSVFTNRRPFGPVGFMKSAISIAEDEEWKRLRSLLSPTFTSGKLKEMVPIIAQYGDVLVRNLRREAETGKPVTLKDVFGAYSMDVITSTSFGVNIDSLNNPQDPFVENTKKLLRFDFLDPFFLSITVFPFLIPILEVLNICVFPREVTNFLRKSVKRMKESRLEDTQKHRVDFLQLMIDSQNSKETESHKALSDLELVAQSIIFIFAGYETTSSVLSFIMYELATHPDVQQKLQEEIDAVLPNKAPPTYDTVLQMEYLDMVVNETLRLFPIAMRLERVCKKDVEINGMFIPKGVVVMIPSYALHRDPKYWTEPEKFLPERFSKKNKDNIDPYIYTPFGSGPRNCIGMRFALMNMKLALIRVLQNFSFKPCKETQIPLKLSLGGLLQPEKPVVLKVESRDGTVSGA

[13] = molecular target: Beta-2 adrenergic receptor (Homo sapiens, UniProt P07550); experiment: Inhibition of human adrenergic beta2 receptor
Chain of Beta-2 adrenergic receptor (P07550 whole entry): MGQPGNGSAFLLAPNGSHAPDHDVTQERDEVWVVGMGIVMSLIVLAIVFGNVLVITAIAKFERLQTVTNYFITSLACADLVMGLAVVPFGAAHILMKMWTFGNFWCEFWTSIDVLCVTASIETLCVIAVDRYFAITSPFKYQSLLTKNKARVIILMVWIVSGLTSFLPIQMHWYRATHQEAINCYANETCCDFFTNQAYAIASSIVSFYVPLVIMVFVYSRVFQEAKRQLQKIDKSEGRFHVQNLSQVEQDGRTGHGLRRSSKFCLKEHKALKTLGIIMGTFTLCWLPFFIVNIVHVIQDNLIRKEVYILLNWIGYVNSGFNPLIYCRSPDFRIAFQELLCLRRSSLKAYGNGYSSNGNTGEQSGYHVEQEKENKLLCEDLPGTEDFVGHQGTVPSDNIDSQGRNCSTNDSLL

[14] = Toxicity in Beagle dog assessed as development-limiting toxicity at 100 mg/kg, po bid administered 2 doses at 4 hrs interval and measured on day 1,14 and 28; type: organism-based, Canis lupus familiaris; details: in vivo, 672 h, time 28 day
Cytochrome P450 3A5 [15] = molecular target: T1, Cytochrome P450 3A5 (Homo sapiens, UniProt P20815); experiment: Inhibition of CYP3A5 in human liver microsomes using midazolam as substrate; type: ADME, Microsome
T1 sequence (P20815 whole entry): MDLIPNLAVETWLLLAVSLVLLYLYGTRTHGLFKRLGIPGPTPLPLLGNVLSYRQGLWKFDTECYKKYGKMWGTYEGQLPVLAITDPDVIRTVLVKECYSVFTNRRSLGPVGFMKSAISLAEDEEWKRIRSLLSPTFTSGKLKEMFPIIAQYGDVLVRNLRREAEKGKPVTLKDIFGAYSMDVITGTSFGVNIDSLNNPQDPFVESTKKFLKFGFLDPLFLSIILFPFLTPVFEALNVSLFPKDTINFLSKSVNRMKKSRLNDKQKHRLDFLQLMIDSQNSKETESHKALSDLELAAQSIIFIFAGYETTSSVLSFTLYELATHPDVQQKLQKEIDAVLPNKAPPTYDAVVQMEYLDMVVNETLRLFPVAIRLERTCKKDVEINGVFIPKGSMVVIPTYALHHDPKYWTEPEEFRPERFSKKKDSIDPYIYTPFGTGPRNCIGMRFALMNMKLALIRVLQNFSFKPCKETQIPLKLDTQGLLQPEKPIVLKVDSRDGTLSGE

[16] = Tmax in human at 200 […], po administered as single dose and measured upto 144 hrs; type: ADME, organism-based; details: in vivo
[17] = Selectivity ratio of agonist activity at human AR to inhibition of RORgamma (unknown origin)
[18] = Selectivity ratio of antagonist activity at human RORbeta to inhibition of RORgamma (unknown origin)
[19] = Selectivity ratio of antagonist activity at human SF1 to inhibition of RORgamma (unknown origin)
[20] = Elimination half life in CD(SD) rat at 1 mg/kg, iv administered as single dose and measured after 24 hrs; type: ADME, organism-based; details: in vivo, read-out: beta t1/2 (converted)
[21] = Tmax in human at 1000 […], po administered as single dose and measured upto 144 hrs; type: ADME, organism-based; details: in vivo
[22] = molecular target: GABA-A receptor; anion channel; experiment: Inhibition of rat GABA-A receptor; type: protein-complex assay
[23] = Elimination half life in cynomolgus monkey at 1 mg/kg, iv administered as single dose and measured after 24 hrs; type: ADME, organism-based, Macaca fascicularis; details: in vivo, read-out: beta t1/2 (converted)
[24] = Inhibition of rat GABA-B receptor
[25] = Selectivity ratio of antagonist activity at human AR to inhibition of RORgamma (unknown origin)
[26] = Selectivity ratio of agonist activity at human PPARdelta to inhibition of RORgamma (unknown origin)
[27] = Selectivity ratio of antagonist activity at human PR to inhibition of RORgamma (unknown origin)
Cytochrome P450 2C8 = Cytochrome P450 2C8 (Homo sapiens, UniProt P10632); experiment: Inhibition of CYP2C8 in human liver microsomes; type: ADME, Microsome
Chain of Cytochrome P450 2C8 (P10632 whole entry): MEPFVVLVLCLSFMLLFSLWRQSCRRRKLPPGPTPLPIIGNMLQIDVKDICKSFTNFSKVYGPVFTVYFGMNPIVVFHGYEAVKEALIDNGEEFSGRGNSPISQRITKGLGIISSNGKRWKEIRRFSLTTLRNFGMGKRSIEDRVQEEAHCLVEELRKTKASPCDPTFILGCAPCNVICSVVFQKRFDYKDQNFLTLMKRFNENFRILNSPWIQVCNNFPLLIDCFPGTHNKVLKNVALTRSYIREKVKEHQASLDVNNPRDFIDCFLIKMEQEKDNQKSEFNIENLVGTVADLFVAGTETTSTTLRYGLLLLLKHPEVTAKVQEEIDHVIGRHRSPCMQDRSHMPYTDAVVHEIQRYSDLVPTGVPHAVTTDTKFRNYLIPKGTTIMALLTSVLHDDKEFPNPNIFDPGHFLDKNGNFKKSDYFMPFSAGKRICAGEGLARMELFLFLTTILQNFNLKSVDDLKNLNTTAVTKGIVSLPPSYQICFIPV

[28] = AUClast in human at 200 mg/kg, po administered as single dose and measured upto 144 hrs; type: ADME, organism-based; details: in vivo
Mus musculus = experiment: Anti-inflammatory activity in complete Freund's adjuvant/MOG (35 to 55 residues)/pertussis toxin-induced experimental autoimmune encephalomyelitis C57BL/6 mouse model assessed as reduction in Th17 cell differentiation by measuring reduction in number of Th17 cells in spinal cords at 3 to 10 mg/kg, po administered once daily for 17 days and measured on day 18 by flow cytometry analysis; type: functional, organism-based; details: dose 3-10 mg/kg, time 18.0 day
[29] = Selectivity ratio of agonist activity at human PPARgamma to inhibition of RORgamma (unknown origin)
[30] = Toxicity in CHL cells assessed as chromosomal aberration at 30 to 50 ug/ml incubated for 24 hrs in presence of S9 fraction; type: subcellular, Cricetulus griseus; details: chinese hamster, s9, 24 h, dose 30-50 µg/ml
[31] = Inhibition of rat nitric oxide synthase
[32] = Inhibition of rat opioid receptor
[33] = Cmax in human at 60 […], po administered as single dose and measured upto 144 hrs; type: ADME, organism-based; details: in vivo
[34] = Inhibition of rat K+ ATP channel
Cytochrome P450 3A5 [35] = molecular target: T1, Cytochrome P450 3A5; experiment: Inhibition of CYP3A5 in human liver microsomes using testosterone as substrate; type: ADME, Microsome
[36] = Elimination half life in human at 400 mg/kg, po administered as single dose and measured upto 144 hrs; type: ADME, organism-based; details: in vivo, read-out: beta t1/2 (converted)
[37] = Elimination half life in C57BL/6J mouse at 1 mg/kg, iv administered as single dose and measured after 24 hrs; type: ADME, organism-based; details: in vivo, read-out: beta t1/2 (converted)
[38] = Oral bioavailability in CD(SD) rat at 10 mg/kg administered as single dose and measured after 24 hrs; type: ADME, organism-based; details: in vivo
[39] = Metabolic stability in human liver microsomes assessed as compound remaining at 5 umol/L measured after 60 mins by UPLC/MS analysis; type: ADME, Microsome; details: dose 5 µmol/L, read-out: Stability
[40] = Elimination half life in human at 600 mg/kg, po administered as single dose and measured upto 144 hrs; type: ADME, organism-based; details: in vivo, read-out: beta t1/2 (converted)
[41] = Selectivity ratio of antagonist activity at human PPARalpha to inhibition of RORgamma (unknown origin)
[42] = Toxicity in CHL cells assessed as chromosomal aberration at 120 to 140 ug/ml incubated for 6 hrs in presence of S9 fraction; type: subcellular, Cricetulus griseus; details: chinese hamster, s9, 6 h, dose 120-140 µg/ml
[43] = Selectivity ratio of agonist activity at human VDR to inhibition of RORgamma (unknown origin)
[44] = Cardiotoxicity in Beagle dog assessed as QTcF prolongation upto 100 mg/kg, po bid measured for 24 hrs; type: toxicity, organism-based, Canis lupus familiaris; details: in vivo

In the case of `Cc1ccc(NC(=O)C[C@H](CCC(=O)O)c2noc([C@H]3C[C@@H](CC(C)(C)C)C3)c2C2CC2)c(Cl)c1`, the Tmax [1] is reported as 3.54 h, the Selectivity ratio [2] is reported as greater than 100 and the Selectivity ratio [3] is reported as greater than 100. It also gave an AUC(0-inf) [4] of 173 µM·h, a Selectivity ratio [5] greater than 100 and a Tmax [6] of 3 h. It also gave a Tmax [7] of 3 h, an IC50 (Adenosine receptor A1) greater than 10 µM and a Vd [8] of 0.16 L/kg. For the same molecule, the Cmax [9] was 1220 ng/mL, the IC50 [10] was 7.4 µM and the MRT [11] was 6.6 h. The Activity [12] was “Non-Toxic”, the IC50 (Cytochrome P450 3A4) was greater than 10 µM and the IC50 [13] was greater than 10 µM. The Activity [14] was “Non-Toxic”, the IC50 (Cytochrome P450 3A5 [15]) was greater than 10 µM and the Tmax [16] was 3.25 h. It also gave a Selectivity ratio [17] greater than 100, a Selectivity ratio [18] greater than 100 and a Selectivity ratio [19] greater than 100. For the same molecule, the half-life [20] was 180 min, the Tmax [21] was 3.5 h and the IC50 [22] was greater than 10 µM. The half-life [23] was 354 min, the IC50 [24] was greater than 10 µM and the Selectivity ratio [25] was greater than 100. It also gave a Selectivity ratio [26] greater than 100, a Selectivity ratio [27] greater than 100 and an IC50 (Cytochrome P450 2C8) of 6.8 µM. The AUC(0-t) at 144 h [28] was 49500 ng·h/mL, the Activity (Mus musculus) was “Active” and the Selectivity ratio [29] was greater than 100. For the same molecule, the Activity [30] was “Non-Toxic”, the IC50 [31] was greater than 10 µM and the IC50 [32] was greater than 10 µM. It also gave a Cmax [33] of 2260 ng/mL, an IC50 [34] greater than 10 µM and an IC50 (Cytochrome P450 3A5 [35]) greater than 10 µM. For the same molecule, the half-life [36] was 445 min, the half-life [37] was 228 min and the bioavailability [38] was 106%. The remaining at 1 h, 5 µM [39] was 73%, the half-life [40] was 440 min and the Selectivity ratio [41] was greater than 100. For the same molecule, the Activity [42] was “Non-Toxic”, the Selectivity ratio [43] was greater than 100 and the Activity [44] was “Non-Toxic”.
